From patent US10487093B2, “Heterocyclic compounds, in particular 2-oxo-4,4,5,5,6,6,7,7-octahydrobenzoxazole derivatives, and their use as antibacterial compounds” (priority 2016, dated 2019) come the findings set out here.

The test system of assay [1] is Escherichia coli ATCC 25922. The experiment in a line: MIC, broth microdilution (CLSI) versus planktonic bacteria. Particulars: ATCC25922; Escherichia coli ATCC 25922; 16-20 h; mode of three independent experiments; read-out: MIC, Ec ATCC 25922. Format: cell-based. (In general: In broth dilution the organism is exposed to a series of concentrations in liquid medium.)

For assay [2], the system named is Haemophilus influenzae ATCC 49247. The description is as above. Format: cell-based. Particulars: ATCC49247; Haemophilus influenzae ATCC 49247; 16-20 h; mode of three independent experiments; read-out: MIC, Hi ATCC 49247.
Assay [3] deals with Streptococcus pneumoniae ATCC 49619. The assay is described as above. Format: cell-based. Particulars: ATCC49619; Streptococcus pneumoniae ATCC 49619; 16-20 h; mode of three independent experiments; read-out: MIC, Sp ATCC 49619.
Assay [4] has as its system Pseudomonas aeruginosa ATCC 27853. Described as above. Particulars: ATCC27853; Pseudomonas aeruginosa ATCC 27853; 16-20 h; mode of three independent experiments; read-out: MIC, Pa ATCC 27853. The class given is cell-based.
Assay [5] concerns Staphylococcus aureus ATCC 29213. The assay is described as above. The class given is cell-based. Particulars: ATCC29213; Staphylococcus aureus ATCC 29213; 16-20 h; mode of three independent experiments; read-out: MIC, Sa ATCC 29213.
The subject of assay [6] is Acinetobacter baumannii NCTC 13420. The assay is described as above. Particulars: NCTC13420; Acinetobacter baumannii NCTC 13420; 16-20 h; mode of three independent experiments; read-out: MIC, Ab NCTC 13420. Format: cell-based.
Assay [7] deals with Enterobacter cloacae NCTC 13406. The description is as above. The class given is cell-based. Particulars: NCTC13406; Enterobacter cloacae NCTC 13406; 16-20 h; mode of three independent experiments; read-out: MIC, Ecl NCTC 13406.
Assay [8] deals with human hepatic cell line (HepG2 ATCC HB-8065). Kind of assay: Human cell viability assay (CellTiter-Glo). Particulars: Homo sapiens, HepG2, 24 h, read-out: IC50 (μg/mL) HepG2.

Values after ≈ are worked out from the molar mass of the structure shown. Bounds are passed on as bounds.

With `O=C1COc2ccc(N3C(=O)O[C@@H]4C[C@@H](NCCn5c(=O)ccc6ncc(F)cc65)CC[C@@H]43)nc2N1` [Compound 28, 1-(2-{[(3aS,6S,7aR)-2-oxo-3-{3-oxo-2H,3H,4H-pyrido[3,2-b][1,4]oxazin-6-yl}-octahydro-1,3-benzoxazol-6-yl]amino}ethyl)-7-fluoro-1,2-dihydro-1,5-naphthyridin-2-one], the MIC in assay [1] is less than 1 µg/mL; in assay [2] it was 1 to 10 µg/mL (≈ 2.02 to 20.2 µM); in assay [3], less than 1 µg/mL; in assay [4], 1 to 10 µg/mL (≈ 2.02 to 20.2 µM); in assay [5], less than 1 µg/mL; in assay [6] it was 1 to 10 µg/mL (≈ 2.02 to 20.2 µM). Besides, the MIC in assay [7] was 1 to 10 µg/mL (≈ 2.02 to 20.2 µM). The IC50 in assay [8] is more than 100 µg/mL.
Consider `O=C1COc2ccc(N3C(=O)O[C@@H]4C[C@H](NCCn5c(=O)ccc6ccc(O)cc65)CC[C@H]43)nc2N1` [Compound 20, 1-(2-{[(3aR,6R,7aR)-2-oxo-3-{3-oxo-2H,3H,4H-pyrido[3,2-b][1,4]oxazin-6-yl}-octahydro-1,3-benzoxazol-6-yl]amino}ethyl)-7-hydroxy-1,2-dihydroquinolin-2-one], for which the MIC in assay [1] is less than 1 µg/mL; in assay [2] it was less than 1 µg/mL; in assay [3], 10 to 100 µg/mL (≈ 20.3 to 203 µM); in assay [4], 1 to 10 µg/mL (≈ 2.03 to 20.3 µM); in assay [5], less than 1 µg/mL; in assay [6] it was 10 to 100 µg/mL (≈ 20.3 to 203 µM). In assay [7], the MIC was 1 to 10 µg/mL (≈ 2.03 to 20.3 µM). The IC50 in assay [8] is more than 100 µg/mL.
As to `COc1ncc2ccc(=O)n(CCN[C@H]3CC[C@H]4[C@H](C3)OC(=O)N4c3ccc4c(n3)NC(=O)CO4)c2n1` [Compound 52, (3aS,6S,7aS)-6-[(2-{2-methoxy-7-oxo-7H,8H-pyrido[2,3-d]pyrimidin-8-yl}ethyl)amino]-3-{3-oxo-2H,3H,4H-pyrido[3,2-b][1,4]oxazin-6-yl}-octahydro-1,3-benzoxazol-2-one], the MIC is less than 1 µg/mL in assay [1]; less than 1 µg/mL in assay [2]; less than 1 µg/mL in assay [3]; 10 to 100 µg/mL (≈ 19.7 to 197 µM) in assay [4]; less than 1 µg/mL in assay [5]; 1 to 10 µg/mL (≈ 1.97 to 19.7 µM) in assay [6]. For the same molecule, the MIC in assay [7] fell in the range of 1 to 10 µg/mL (≈ 1.97 to 19.7 µM).
As for `O=C1COc2cnc(N3C(=O)O[C@@H]4C[C@@H](NCCn5c(=O)cnc6cc(F)c(F)cc65)CC[C@@H]43)nc2N1` [Compound 65, 1-(2-{[(3aS,6S,7aR)-2-oxo-3-{7-oxo-6H,7H,8H-pyrimido[5,4-b][1,4]oxazin-2-yl}-octahydro-1,3-benzoxazol-6-yl]amino}ethyl)-6,7-difluoro-1,2-dihydroquinoxalin-2-one], the MIC is 1 to 10 µg/mL (≈ 1.95 to 19.5 µM) in assay [1]; 1 to 10 µg/mL (≈ 1.95 to 19.5 µM) in assay [2]; less than 1 µg/mL in assay [3]; 10 to 100 µg/mL (≈ 19.5 to 195 µM) in assay [4]; less than 1 µg/mL in assay [5]; 10 to 100 µg/mL (≈ 19.5 to 195 µM) in assay [6]. The MIC in assay [7] lay within 1 to 10 µg/mL (≈ 1.95 to 19.5 µM). The IC50 in assay [8] was more than 100 µg/mL.
For `COc1ncc2ccc(=O)n(CCN[C@@H]3CC[C@@H]4[C@@H](C3)OC(=O)N4c3ncc4c(n3)NC(=O)CO4)c2n1` [Compound 33, (3aR,6R,7aR)-6-[(2-{2-methoxy-7-oxo-7H,8H-pyrido[2,3-d]pyrimidin-8-yl}ethyl)amino]-3-{7-oxo-6H,7H,8H-pyrimido[5,4-b][1,4]oxazin-2-yl}-octahydro-1,3-benzoxazol-2-one], the MIC in assay [1] is less than 1 µg/mL; in assay [2], 1 to 10 µg/mL (≈ 1.97 to 19.7 µM); in assay [3], less than 1 µg/mL; in assay [4], 10 to 100 µg/mL (≈ 19.7 to 197 µM); in assay [5], less than 1 µg/mL; in assay [6] it was 10 to 100 µg/mL (≈ 19.7 to 197 µM). Also, the MIC in assay [7] fell in the range of 1 to 10 µg/mL (≈ 1.97 to 19.7 µM).
For the molecule `COc1cccc(-c2cccc(CN[C@H]3CC[C@H]4[C@H](C3)OC(=O)N4c3ccc4c(n3)NC(=O)CO4)c2)n1` [Compound 73, (3aS,6S,7aS)-6-({[3-(6-methoxypyridin-2-yl)phenyl]methyl}amino)-3-{3-oxo-2H,3H,4H-pyrido[3,2-b][1,4]oxazin-6-yl}-octahydro-1,3-benzoxazol-2-one], the MIC was less than 1 µg/mL in assay [1]; 1 to 10 µg/mL (≈ 1.99 to 19.9 µM) in assay [2]; 1 to 10 µg/mL (≈ 1.99 to 19.9 µM) in assay [3]; 10 to 100 µg/mL (≈ 19.9 to 199 µM) in assay [4]; less than 1 µg/mL in assay [5]; 1 to 10 µg/mL (≈ 1.99 to 19.9 µM) in assay [6]. Moreover, the MIC in assay [7] fell in the range of 1 to 10 µg/mL (≈ 1.99 to 19.9 µM).
With `N#Cc1ccc2c(ccc(=O)n2CCN[C@H]2CC[C@H]3[C@H](C2)OC(=O)N3c2ccc3c(n2)NC(=O)CO3)c1` [Compound 107, 1-(2-{[(3aS,6S,7aS)-2-oxo-3-{3-oxo-2H,3H,4H-pyrido[3,2-b][1,4]oxazin-6-yl}-octahydro-1,3-benzoxazol-6-yl]amino}ethyl)-2-oxo-1,2-dihydroquinoline-6-carbonitrile], the MIC in assay [1] was 1 to 10 µg/mL (≈ 2 to 20 µM); in assay [2] it was 1 to 10 µg/mL (≈ 2 to 20 µM); in assay [3] it was 1 to 10 µg/mL (≈ 2 to 20 µM); in assay [4], more than 100 µg/mL; in assay [5] it was 1 to 10 µg/mL (≈ 2 to 20 µM); in assay [6], 1 to 10 µg/mL (≈ 2 to 20 µM). Further, in assay [7], the MIC fell in the range of 10 to 100 µg/mL (≈ 20 to 200 µM).
For the molecule `O=C1COc2ccc(N3C(=O)O[C@H]4C[C@@H](NCCn5c(=O)ccc6ccc(OCCN7CCOCC7)cc65)CC[C@@H]43)nc2N1` [Compound 97, 1-(2-{[(3aS,6S,7aS)-2-oxo-3-{3-oxo-2H,3H,4H-pyrido[3,2-b][1,4]oxazin-6-yl}-octahydro-1,3-benzoxazol-6-yl]amino}ethyl)-7-[2-(morpholin-4-yl)ethoxy]-1,2-dihydroquinolin-2-one], the MIC in assay [1] was 1 to 10 µg/mL (≈ 1.65 to 16.5 µM); in assay [2] it was 1 to 10 µg/mL (≈ 1.65 to 16.5 µM); in assay [3], 1 to 10 µg/mL (≈ 1.65 to 16.5 µM); in assay [4] it was 10 to 100 µg/mL (≈ 16.5 to 165 µM); in assay [5] it was less than 1 µg/mL; in assay [6], 1 to 10 µg/mL (≈ 1.65 to 16.5 µM). Further, in assay [7], the MIC lay within 10 to 100 µg/mL (≈ 16.5 to 165 µM).
As to `COc1cnc2ccc(=O)n(CCN[C@@H]3CC[C@@H]4[C@@H](C3)OC(=O)N4c3ncc4c(n3)NC(=O)CO4)c2c1` [Compound 41, 1-(2-{[(3aR,6R,7aR)-2-oxo-3-{7-oxo-6H,7H,8H-pyrimido[5,4-b][1,4]oxazin-2-yl}-octahydro-1,3-benzoxazol-6-yl]amino}ethyl)-7-methoxy-1,2-dihydro-1,5-naphthyridin-2-one], the MIC in assay [1] is less than 1 µg/mL; in assay [3], less than 1 µg/mL; in assay [4], 1 to 10 µg/mL (≈ 1.97 to 19.7 µM); in assay [5], less than 1 µg/mL; in assay [6] it was 10 to 100 µg/mL (≈ 19.7 to 197 µM); in assay [7], 1 to 10 µg/mL (≈ 1.97 to 19.7 µM).
As to `O=C1COc2ccc(N3C(=O)O[C@H]4C[C@@H](NCCn5c(=O)ccc6ccc(OC7CNC7)cc65)CC[C@@H]43)nc2N1` [Compound 103, 1-(2-{[(3aS,6S,7aS)-2-oxo-3-{3-oxo-2H,3H,4H-pyrido[3,2-b][1,4]oxazin-6-yl}-octahydro-1,3-benzoxazol-6-yl]amino}ethyl)-7-(azetidin-3-yloxy)-1,2-dihydroquinolin-2-one], the MIC in assay [1] fell in the range of 1 to 10 µg/mL (≈ 1.83 to 18.3 µM); in assay [3] it was 1 to 10 µg/mL (≈ 1.83 to 18.3 µM); in assay [4], 1 to 10 µg/mL (≈ 1.83 to 18.3 µM); in assay [6], 10 to 100 µg/mL (≈ 18.3 to 183 µM).
Regarding `COc1cnc2ccc(=O)n(CCCN[C@H]3CC[C@H]4[C@H](C3)OC(=O)N4c3ccc4c(n3)NC(=O)CS4)c2c1` [Compound 96, 1-(3-{[(3aS,6S,7aS)-2-oxo-3-{3-oxo-2H,3H,4H-pyrido[3,2-b][1,4]thiazin-6-yl}-octahydro-1,3-benzoxazol-6-yl]amino}propyl)-7-methoxy-1,2-dihydro-1,5-naphthyridin-2-one], the MIC in assay [2] was less than 1 µg/mL; in assay [4], 1 to 10 µg/mL (≈ 1.86 to 18.6 µM); in assay [5], less than 1 µg/mL; in assay [6], less than 1 µg/mL; in assay [7] it was less than 1 µg/mL.
